# Data as given in ChEMBL document CHEMBL3991601, “The target landscape of clinical kinase drugs” (Science, 2017).
# Calls of active or inactive are those of the source. Rule as the data show it, for most assays here: actives have a measured Kd and inactives only a lower limit.
# Target: Calcium/calmodulin-dependent protein kinase type II subunit gamma (Homo sapiens, UniProt Q13555)
# Also: in the data inactive means no Kd found up to 30 µM.
# Chain of Calcium/calmodulin-dependent protein kinase type II subunit gamma (Q13555 whole entry): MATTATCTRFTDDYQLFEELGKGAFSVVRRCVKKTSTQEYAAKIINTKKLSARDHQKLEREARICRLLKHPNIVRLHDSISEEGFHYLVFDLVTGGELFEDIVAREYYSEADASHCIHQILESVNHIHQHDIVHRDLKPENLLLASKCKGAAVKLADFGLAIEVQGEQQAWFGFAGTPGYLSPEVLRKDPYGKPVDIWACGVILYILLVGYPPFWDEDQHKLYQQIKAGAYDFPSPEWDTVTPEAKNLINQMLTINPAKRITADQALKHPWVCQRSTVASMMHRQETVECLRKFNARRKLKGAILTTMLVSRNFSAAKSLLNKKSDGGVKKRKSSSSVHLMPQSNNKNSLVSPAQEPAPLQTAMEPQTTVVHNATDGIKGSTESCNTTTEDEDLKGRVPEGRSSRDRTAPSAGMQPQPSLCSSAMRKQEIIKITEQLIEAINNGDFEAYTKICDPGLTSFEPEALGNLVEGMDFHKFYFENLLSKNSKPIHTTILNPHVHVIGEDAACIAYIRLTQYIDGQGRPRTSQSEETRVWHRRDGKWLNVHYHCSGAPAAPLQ
row,Structure (SMILES),Kd
1,Cc1cc2c(F)c(Oc3ncnn4cc(OC[C@@H](C)OC(=O)[C@H](C)N)c(C)c34)ccc2[nH]1 [BRIVANIB ALANINATE],> 30 µM (inactive)
2,COCCNCc1ccc(-c2cc3nccc(Oc4ccc(NC(=S)NC(=O)Cc5ccc(F)cc5)cc4F)c3s2)nc1 [GLESATINIB],> 30 µM (inactive)
3,O=C(O)[C@]1(Cc2cccc(Nc3nccs3)n2)CC[C@@H](Oc2cccc(Cl)c2F)CC1 [MK-5108],> 30 µM (inactive)
4,C=CC(=O)N1CCC(Oc2cc3c(Nc4ccc(Cl)c(Cl)c4F)ncnc3cc2OC)CC1 [POZIOTINIB],> 30 µM (inactive)
5,CNC(=O)CN1CCC(Oc2cc3c(Nc4cccc(Cl)c4F)ncnc3cc2OC)CC1 [SAPITINIB],> 30 µM (inactive)

# Target: T1, Serine/threonine-protein kinase Chk1 (Homo sapiens, UniProt O14757)
# T1 sequence (O14757 whole entry): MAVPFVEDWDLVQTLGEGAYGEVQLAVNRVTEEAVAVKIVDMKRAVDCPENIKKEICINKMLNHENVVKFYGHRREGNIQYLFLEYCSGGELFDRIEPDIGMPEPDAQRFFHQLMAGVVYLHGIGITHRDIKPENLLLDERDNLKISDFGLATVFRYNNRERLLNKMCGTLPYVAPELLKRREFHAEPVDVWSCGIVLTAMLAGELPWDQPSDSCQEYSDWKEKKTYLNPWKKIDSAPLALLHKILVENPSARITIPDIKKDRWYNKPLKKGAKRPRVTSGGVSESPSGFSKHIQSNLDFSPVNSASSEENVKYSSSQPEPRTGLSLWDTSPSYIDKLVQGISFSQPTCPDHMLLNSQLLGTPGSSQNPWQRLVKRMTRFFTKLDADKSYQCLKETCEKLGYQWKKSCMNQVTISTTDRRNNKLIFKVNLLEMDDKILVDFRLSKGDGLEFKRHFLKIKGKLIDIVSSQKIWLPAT
row,Structure (SMILES),Kd
1,Cc1cc2c(F)c(Oc3ncnn4cc(OC[C@@H](C)OC(=O)[C@H](C)N)c(C)c34)ccc2[nH]1 [BRIVANIB ALANINATE],> 30 µM (inactive)
2,COCCNCc1ccc(-c2cc3nccc(Oc4ccc(NC(=S)NC(=O)Cc5ccc(F)cc5)cc4F)c3s2)nc1 [GLESATINIB],> 30 µM (inactive)
3,O=C(O)[C@]1(Cc2cccc(Nc3nccs3)n2)CC[C@@H](Oc2cccc(Cl)c2F)CC1 [MK-5108],> 30 µM (inactive)
4,C=CC(=O)N1CCC(Oc2cc3c(Nc4ccc(Cl)c(Cl)c4F)ncnc3cc2OC)CC1 [POZIOTINIB],> 30 µM (inactive)
5,CNC(=O)CN1CCC(Oc2cc3c(Nc4cccc(Cl)c4F)ncnc3cc2OC)CC1 [SAPITINIB],> 30 µM (inactive)

# Target: Dual specificity protein kinase CLK1 (Homo sapiens, UniProt P49759)
# Sequence (P49759 whole entry): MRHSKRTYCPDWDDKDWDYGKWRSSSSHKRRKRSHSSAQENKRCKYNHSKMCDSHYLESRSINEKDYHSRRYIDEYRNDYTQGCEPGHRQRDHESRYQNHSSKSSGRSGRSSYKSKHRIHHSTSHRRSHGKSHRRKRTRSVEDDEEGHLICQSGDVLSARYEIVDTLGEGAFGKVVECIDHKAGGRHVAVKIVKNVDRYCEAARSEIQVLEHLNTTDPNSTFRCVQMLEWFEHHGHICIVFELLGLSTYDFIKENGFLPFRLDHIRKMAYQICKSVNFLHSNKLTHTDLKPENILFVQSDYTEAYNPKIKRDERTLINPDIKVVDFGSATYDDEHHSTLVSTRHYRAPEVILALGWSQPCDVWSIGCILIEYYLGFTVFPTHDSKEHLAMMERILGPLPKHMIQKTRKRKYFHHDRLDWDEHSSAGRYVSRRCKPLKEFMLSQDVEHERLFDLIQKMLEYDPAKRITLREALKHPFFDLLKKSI
row,Structure (SMILES),Kd
1,Cc1cc2c(F)c(Oc3ncnn4cc(OC[C@@H](C)OC(=O)[C@H](C)N)c(C)c34)ccc2[nH]1 [BRIVANIB ALANINATE],> 30 µM (inactive)
2,COCCNCc1ccc(-c2cc3nccc(Oc4ccc(NC(=S)NC(=O)Cc5ccc(F)cc5)cc4F)c3s2)nc1 [GLESATINIB],> 30 µM (inactive)
3,O=C(O)[C@]1(Cc2cccc(Nc3nccs3)n2)CC[C@@H](Oc2cccc(Cl)c2F)CC1 [MK-5108],> 30 µM (inactive)
4,C=CC(=O)N1CCC(Oc2cc3c(Nc4ccc(Cl)c(Cl)c4F)ncnc3cc2OC)CC1 [POZIOTINIB],> 30 µM (inactive)
5,CNC(=O)CN1CCC(Oc2cc3c(Nc4cccc(Cl)c4F)ncnc3cc2OC)CC1 [SAPITINIB],> 30 µM (inactive)

# Target: Casein kinase I isoform delta (Homo sapiens, UniProt P48730)
# Sequence (P48730 whole entry, canonical isoform): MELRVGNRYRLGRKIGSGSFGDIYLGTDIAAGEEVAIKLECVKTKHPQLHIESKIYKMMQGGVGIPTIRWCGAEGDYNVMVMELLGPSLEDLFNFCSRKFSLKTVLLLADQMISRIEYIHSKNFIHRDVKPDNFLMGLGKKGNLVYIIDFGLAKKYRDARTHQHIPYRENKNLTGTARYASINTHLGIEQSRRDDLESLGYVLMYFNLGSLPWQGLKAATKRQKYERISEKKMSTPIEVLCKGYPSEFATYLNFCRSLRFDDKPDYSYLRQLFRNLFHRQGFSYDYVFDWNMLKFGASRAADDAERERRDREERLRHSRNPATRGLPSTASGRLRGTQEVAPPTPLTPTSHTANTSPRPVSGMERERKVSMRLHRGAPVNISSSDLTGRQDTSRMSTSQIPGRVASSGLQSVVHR
row,Structure (SMILES),Kd
1,Cc1cc2c(F)c(Oc3ncnn4cc(OC[C@@H](C)OC(=O)[C@H](C)N)c(C)c34)ccc2[nH]1 [BRIVANIB ALANINATE],> 30 µM (inactive)
2,COCCNCc1ccc(-c2cc3nccc(Oc4ccc(NC(=S)NC(=O)Cc5ccc(F)cc5)cc4F)c3s2)nc1 [GLESATINIB],> 30 µM (inactive)
3,O=C(O)[C@]1(Cc2cccc(Nc3nccs3)n2)CC[C@@H](Oc2cccc(Cl)c2F)CC1 [MK-5108],> 30 µM (inactive)
4,C=CC(=O)N1CCC(Oc2cc3c(Nc4ccc(Cl)c(Cl)c4F)ncnc3cc2OC)CC1 [POZIOTINIB],> 30 µM (inactive)
5,CNC(=O)CN1CCC(Oc2cc3c(Nc4cccc(Cl)c4F)ncnc3cc2OC)CC1 [SAPITINIB],> 30 µM (inactive)

# Target: Serine/threonine-protein kinase Nek7 (Homo sapiens, UniProt Q8TDX7)
# Sequence (Q8TDX7 whole entry): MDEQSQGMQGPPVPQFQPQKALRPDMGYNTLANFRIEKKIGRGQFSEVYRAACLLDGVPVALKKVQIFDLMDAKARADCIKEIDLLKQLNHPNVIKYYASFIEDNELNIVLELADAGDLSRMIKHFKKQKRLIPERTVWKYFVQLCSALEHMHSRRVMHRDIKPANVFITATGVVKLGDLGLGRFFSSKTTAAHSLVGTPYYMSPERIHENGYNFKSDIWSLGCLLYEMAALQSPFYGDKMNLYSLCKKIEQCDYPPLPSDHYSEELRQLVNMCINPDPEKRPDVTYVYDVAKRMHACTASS
row,Structure (SMILES),Kd
1,Cc1cc2c(F)c(Oc3ncnn4cc(OC[C@@H](C)OC(=O)[C@H](C)N)c(C)c34)ccc2[nH]1 [BRIVANIB ALANINATE],> 30 µM (inactive)
2,COCCNCc1ccc(-c2cc3nccc(Oc4ccc(NC(=S)NC(=O)Cc5ccc(F)cc5)cc4F)c3s2)nc1 [GLESATINIB],> 30 µM (inactive)
3,O=C(O)[C@]1(Cc2cccc(Nc3nccs3)n2)CC[C@@H](Oc2cccc(Cl)c2F)CC1 [MK-5108],> 30 µM (inactive)

# Target: T2, Pyridoxal kinase (Homo sapiens, UniProt O00764)
# T2 sequence (O00764 whole entry): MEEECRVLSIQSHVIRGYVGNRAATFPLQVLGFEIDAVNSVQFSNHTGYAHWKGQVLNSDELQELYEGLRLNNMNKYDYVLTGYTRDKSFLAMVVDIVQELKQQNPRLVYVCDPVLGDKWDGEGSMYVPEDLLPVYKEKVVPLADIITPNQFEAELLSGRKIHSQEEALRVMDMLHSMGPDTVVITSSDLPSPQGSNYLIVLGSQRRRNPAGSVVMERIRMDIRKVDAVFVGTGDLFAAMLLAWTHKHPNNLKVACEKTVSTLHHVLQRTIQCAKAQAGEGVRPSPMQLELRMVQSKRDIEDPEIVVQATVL
row,Structure (SMILES),Kd
1,Cc1cc2c(F)c(Oc3ncnn4cc(OC[C@@H](C)OC(=O)[C@H](C)N)c(C)c34)ccc2[nH]1 [BRIVANIB ALANINATE],> 30 µM (inactive)
2,COCCNCc1ccc(-c2cc3nccc(Oc4ccc(NC(=S)NC(=O)Cc5ccc(F)cc5)cc4F)c3s2)nc1 [GLESATINIB],> 30 µM (inactive)
3,O=C(O)[C@]1(Cc2cccc(Nc3nccs3)n2)CC[C@@H](Oc2cccc(Cl)c2F)CC1 [MK-5108],> 30 µM (inactive)
4,C=CC(=O)N1CCC(Oc2cc3c(Nc4ccc(Cl)c(Cl)c4F)ncnc3cc2OC)CC1 [POZIOTINIB],> 30 µM (inactive)
5,CNC(=O)CN1CCC(Oc2cc3c(Nc4cccc(Cl)c4F)ncnc3cc2OC)CC1 [SAPITINIB],> 30 µM (inactive)

# Target: Serine/threonine-protein kinase N3 (Homo sapiens, UniProt Q6P5Z2)
# Sequence (Q6P5Z2 whole entry): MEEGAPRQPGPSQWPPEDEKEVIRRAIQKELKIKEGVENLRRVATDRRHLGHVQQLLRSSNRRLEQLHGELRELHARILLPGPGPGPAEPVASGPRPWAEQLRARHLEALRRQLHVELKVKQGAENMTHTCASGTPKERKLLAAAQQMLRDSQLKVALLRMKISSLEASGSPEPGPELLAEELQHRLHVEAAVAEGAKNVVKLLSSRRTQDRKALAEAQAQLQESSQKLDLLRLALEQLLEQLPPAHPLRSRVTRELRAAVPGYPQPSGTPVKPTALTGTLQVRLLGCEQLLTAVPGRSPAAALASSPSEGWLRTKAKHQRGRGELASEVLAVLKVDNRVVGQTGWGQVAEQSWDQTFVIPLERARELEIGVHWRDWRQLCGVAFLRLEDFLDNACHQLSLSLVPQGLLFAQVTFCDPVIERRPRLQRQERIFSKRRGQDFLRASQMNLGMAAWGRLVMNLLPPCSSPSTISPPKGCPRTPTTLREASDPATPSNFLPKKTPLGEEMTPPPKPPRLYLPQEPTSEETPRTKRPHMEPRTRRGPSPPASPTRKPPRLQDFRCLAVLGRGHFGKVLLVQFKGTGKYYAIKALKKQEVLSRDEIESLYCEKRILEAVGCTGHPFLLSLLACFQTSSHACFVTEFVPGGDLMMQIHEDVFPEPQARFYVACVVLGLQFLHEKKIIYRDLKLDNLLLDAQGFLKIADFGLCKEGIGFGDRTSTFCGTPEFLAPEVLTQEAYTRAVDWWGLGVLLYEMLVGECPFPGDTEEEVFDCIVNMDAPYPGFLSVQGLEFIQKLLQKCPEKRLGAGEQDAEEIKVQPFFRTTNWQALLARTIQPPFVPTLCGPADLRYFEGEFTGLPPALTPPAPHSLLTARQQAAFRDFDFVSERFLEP
row,Structure (SMILES),Kd
1,Cc1cc2c(F)c(Oc3ncnn4cc(OC[C@@H](C)OC(=O)[C@H](C)N)c(C)c34)ccc2[nH]1 [BRIVANIB ALANINATE],> 30 µM (inactive)
2,COCCNCc1ccc(-c2cc3nccc(Oc4ccc(NC(=S)NC(=O)Cc5ccc(F)cc5)cc4F)c3s2)nc1 [GLESATINIB],> 30 µM (inactive)
3,O=C(O)[C@]1(Cc2cccc(Nc3nccs3)n2)CC[C@@H](Oc2cccc(Cl)c2F)CC1 [MK-5108],> 30 µM (inactive)
4,CNC(=O)CN1CCC(Oc2cc3c(Nc4cccc(Cl)c4F)ncnc3cc2OC)CC1 [SAPITINIB],> 30 µM (inactive)

# Target: cAMP-dependent protein kinase catalytic subunit alpha (Homo sapiens, UniProt P17612)
row,Structure (SMILES),Kd
1,Cc1cc2c(F)c(Oc3ncnn4cc(OC[C@@H](C)OC(=O)[C@H](C)N)c(C)c34)ccc2[nH]1 [BRIVANIB ALANINATE],> 30 µM (inactive)
2,COCCNCc1ccc(-c2cc3nccc(Oc4ccc(NC(=S)NC(=O)Cc5ccc(F)cc5)cc4F)c3s2)nc1 [GLESATINIB],> 30 µM (inactive)
3,O=C(O)[C@]1(Cc2cccc(Nc3nccs3)n2)CC[C@@H](Oc2cccc(Cl)c2F)CC1 [MK-5108],> 30 µM (inactive)
4,C=CC(=O)N1CCC(Oc2cc3c(Nc4ccc(Cl)c(Cl)c4F)ncnc3cc2OC)CC1 [POZIOTINIB],> 30 µM (inactive)
5,CNC(=O)CN1CCC(Oc2cc3c(Nc4cccc(Cl)c4F)ncnc3cc2OC)CC1 [SAPITINIB],> 30 µM (inactive)

# Target: T3, Protein kinase C zeta type (Homo sapiens, UniProt Q05513)
# T3 sequence (Q05513 whole entry): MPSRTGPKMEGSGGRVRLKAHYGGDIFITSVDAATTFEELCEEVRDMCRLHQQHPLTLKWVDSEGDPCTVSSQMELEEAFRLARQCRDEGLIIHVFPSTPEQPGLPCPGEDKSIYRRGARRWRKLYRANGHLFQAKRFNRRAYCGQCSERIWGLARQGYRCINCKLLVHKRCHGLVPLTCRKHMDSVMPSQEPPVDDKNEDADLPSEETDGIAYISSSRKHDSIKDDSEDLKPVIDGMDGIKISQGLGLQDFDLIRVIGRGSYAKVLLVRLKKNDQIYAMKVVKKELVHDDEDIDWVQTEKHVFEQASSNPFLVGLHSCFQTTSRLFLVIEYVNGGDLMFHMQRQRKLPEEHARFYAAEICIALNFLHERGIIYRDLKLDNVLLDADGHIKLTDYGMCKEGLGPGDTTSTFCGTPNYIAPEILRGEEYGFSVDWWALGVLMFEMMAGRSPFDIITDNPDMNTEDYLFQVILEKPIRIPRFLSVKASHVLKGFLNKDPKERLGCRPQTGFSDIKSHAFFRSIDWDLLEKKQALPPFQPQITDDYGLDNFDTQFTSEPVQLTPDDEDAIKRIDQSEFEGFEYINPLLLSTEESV
row,Structure (SMILES),Kd
1,Cc1cc2c(F)c(Oc3ncnn4cc(OC[C@@H](C)OC(=O)[C@H](C)N)c(C)c34)ccc2[nH]1 [BRIVANIB ALANINATE],> 30 µM (inactive)
2,COCCNCc1ccc(-c2cc3nccc(Oc4ccc(NC(=S)NC(=O)Cc5ccc(F)cc5)cc4F)c3s2)nc1 [GLESATINIB],> 30 µM (inactive)
3,O=C(O)[C@]1(Cc2cccc(Nc3nccs3)n2)CC[C@@H](Oc2cccc(Cl)c2F)CC1 [MK-5108],> 30 µM (inactive)
4,C=CC(=O)N1CCC(Oc2cc3c(Nc4ccc(Cl)c(Cl)c4F)ncnc3cc2OC)CC1 [POZIOTINIB],> 30 µM (inactive)
5,CNC(=O)CN1CCC(Oc2cc3c(Nc4cccc(Cl)c4F)ncnc3cc2OC)CC1 [SAPITINIB],> 30 µM (inactive)

# Target: Ribosomal protein S6 kinase alpha-3 (Homo sapiens, UniProt P51812)
# Sequence (P51812 whole entry): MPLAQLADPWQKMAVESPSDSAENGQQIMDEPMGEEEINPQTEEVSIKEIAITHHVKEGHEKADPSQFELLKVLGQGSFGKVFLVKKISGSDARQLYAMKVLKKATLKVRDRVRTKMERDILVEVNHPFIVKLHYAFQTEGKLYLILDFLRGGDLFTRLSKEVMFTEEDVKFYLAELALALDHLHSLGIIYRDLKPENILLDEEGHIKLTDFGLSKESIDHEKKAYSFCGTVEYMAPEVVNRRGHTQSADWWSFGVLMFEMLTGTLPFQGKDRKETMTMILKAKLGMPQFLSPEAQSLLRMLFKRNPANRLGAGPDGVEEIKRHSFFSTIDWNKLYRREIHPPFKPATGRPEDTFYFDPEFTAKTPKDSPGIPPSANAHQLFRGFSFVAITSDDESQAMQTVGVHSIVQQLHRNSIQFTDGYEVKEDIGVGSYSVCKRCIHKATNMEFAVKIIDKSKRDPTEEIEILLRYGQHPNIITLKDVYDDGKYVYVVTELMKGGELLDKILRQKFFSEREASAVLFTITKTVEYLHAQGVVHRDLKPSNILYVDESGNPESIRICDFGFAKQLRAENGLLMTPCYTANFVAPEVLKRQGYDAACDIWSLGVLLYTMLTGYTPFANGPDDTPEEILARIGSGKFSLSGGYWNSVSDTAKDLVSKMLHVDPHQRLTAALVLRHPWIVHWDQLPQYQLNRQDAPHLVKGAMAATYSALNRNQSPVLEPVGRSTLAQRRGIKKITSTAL
row,Structure (SMILES),Kd
1,Cc1cc2c(F)c(Oc3ncnn4cc(OC[C@@H](C)OC(=O)[C@H](C)N)c(C)c34)ccc2[nH]1 [BRIVANIB ALANINATE],> 30 µM (inactive)
2,COCCNCc1ccc(-c2cc3nccc(Oc4ccc(NC(=S)NC(=O)Cc5ccc(F)cc5)cc4F)c3s2)nc1 [GLESATINIB],> 30 µM (inactive)
3,O=C(O)[C@]1(Cc2cccc(Nc3nccs3)n2)CC[C@@H](Oc2cccc(Cl)c2F)CC1 [MK-5108],> 30 µM (inactive)
4,C=CC(=O)N1CCC(Oc2cc3c(Nc4ccc(Cl)c(Cl)c4F)ncnc3cc2OC)CC1 [POZIOTINIB],> 30 µM (inactive)
5,CNC(=O)CN1CCC(Oc2cc3c(Nc4cccc(Cl)c4F)ncnc3cc2OC)CC1 [SAPITINIB],> 30 µM (inactive)

# Target: Ribosomal protein S6 kinase alpha-5 (Homo sapiens, UniProt O75582)
# Sequence (O75582 whole entry): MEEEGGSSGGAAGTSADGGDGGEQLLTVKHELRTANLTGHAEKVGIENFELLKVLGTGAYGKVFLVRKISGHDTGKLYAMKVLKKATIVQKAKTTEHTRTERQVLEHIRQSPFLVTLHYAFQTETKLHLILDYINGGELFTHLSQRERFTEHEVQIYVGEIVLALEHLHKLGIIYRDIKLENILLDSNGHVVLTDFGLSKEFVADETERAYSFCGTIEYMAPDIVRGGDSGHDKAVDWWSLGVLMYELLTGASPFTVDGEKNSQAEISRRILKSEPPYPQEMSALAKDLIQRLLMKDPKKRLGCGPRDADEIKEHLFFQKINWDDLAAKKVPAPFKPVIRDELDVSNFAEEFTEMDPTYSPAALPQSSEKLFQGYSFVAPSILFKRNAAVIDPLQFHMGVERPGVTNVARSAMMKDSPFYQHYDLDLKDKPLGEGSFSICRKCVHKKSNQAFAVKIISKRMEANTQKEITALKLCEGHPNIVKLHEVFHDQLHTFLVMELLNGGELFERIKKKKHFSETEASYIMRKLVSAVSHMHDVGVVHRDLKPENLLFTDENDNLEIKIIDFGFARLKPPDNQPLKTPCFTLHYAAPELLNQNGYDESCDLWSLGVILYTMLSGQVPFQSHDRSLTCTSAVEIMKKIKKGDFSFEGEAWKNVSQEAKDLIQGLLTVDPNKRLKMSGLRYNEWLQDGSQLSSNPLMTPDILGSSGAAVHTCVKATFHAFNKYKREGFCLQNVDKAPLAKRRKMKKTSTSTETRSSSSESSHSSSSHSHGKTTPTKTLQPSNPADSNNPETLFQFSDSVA
row,Structure (SMILES),Kd
1,Cc1cc2c(F)c(Oc3ncnn4cc(OC[C@@H](C)OC(=O)[C@H](C)N)c(C)c34)ccc2[nH]1 [BRIVANIB ALANINATE],> 30 µM (inactive)
2,COCCNCc1ccc(-c2cc3nccc(Oc4ccc(NC(=S)NC(=O)Cc5ccc(F)cc5)cc4F)c3s2)nc1 [GLESATINIB],> 30 µM (inactive)
3,O=C(O)[C@]1(Cc2cccc(Nc3nccs3)n2)CC[C@@H](Oc2cccc(Cl)c2F)CC1 [MK-5108],> 30 µM (inactive)
4,C=CC(=O)N1CCC(Oc2cc3c(Nc4ccc(Cl)c(Cl)c4F)ncnc3cc2OC)CC1 [POZIOTINIB],> 30 µM (inactive)
5,CNC(=O)CN1CCC(Oc2cc3c(Nc4cccc(Cl)c4F)ncnc3cc2OC)CC1 [SAPITINIB],> 30 µM (inactive)
